≈ marks a conversion by molar mass, not a printed value.

The term solubility (kinetic) denotes the concentration staying in solution when a stock, usually in DMSO, is diluted into the medium.

The conditions of this data set: buffer; pH 7.4; 200.0 µM.
With `OC1/C(=C/c2ccc(C(F)(F)F)cc2)N2CCC1CC2` (centres undefined), the kinetic solubility came out at 41.5 µg/mL (≈ 146 µM).

As for `Cc1ccc(OCC(=O)Nc2cc(C)on2)c([N+](=O)[O-])n1`, the solubility (kinetic) is 18 µg/mL (≈ 61.6 µM).

As to `CC1CCc2sc(C(=O)OCC(=O)NC(N)=O)cc2C1` (centres undefined), the kinetic solubility was determined as 2 µg/mL (≈ 6.75 µM).

With `CCOC(=O)CN/C=C(\C#N)c1ccc(F)cc1`, the solubility (kinetic) worked out at 36.4 µg/mL (≈ 147 µM).

`O=C(O)c1ccc(CNC(=O)c2ccc3c(c2)OCCO3)cc1` registered a kinetic solubility of over 47 µg/mL.

Compound `CCc1ccc(NC(=O)CCC(=O)c2ccc(C)cc2)cc1` had a solubility (kinetic) of 4.3 µg/mL (≈ 14.6 µM).

`O=C(NCCOc1ccc(Cl)cc1)c1ccc2c(c1)OCCO2` came in with a solubility (kinetic) of 6.3 µg/mL (≈ 18.9 µM).

`COC(=O)c1ccc(NC(=O)C(=O)c2cccn2C)cc1` showed a solubility (kinetic) of 3.2 µg/mL (≈ 11.2 µM).

In turn, `CCOC(=O)CC(NC(=O)c1ccccc1)c1ccc(OC)cc1` (centres undefined) had a kinetic solubility of 36.4 µg/mL (≈ 111 µM).

As for `O=C1CC(=O)N(Cc2ccccc2)C(=S)N1`, the solubility (kinetic) was over 35.1 µg/mL.

As to `C=CCOn1c(=O)c(-c2ccc(Cl)cc2)[n+]([O-])c2ccccc21`, the solubility (kinetic) was determined as 0.8 µg/mL (≈ 2.43 µM).

`O=C(CCNC(=O)c1ccccc1Cl)NC1=NCCS1` returned a solubility (kinetic) of 42.8 µg/mL (≈ 137 µM).

As to `COc1cc(CC(=O)OCC(=O)NC2CCCCCC2)cc(OC)c1OC`, the kinetic solubility is over 56.9 µg/mL.

Consider `COC(=O)c1cc(C)sc1NC(=O)CSc1ncccn1`, for which the solubility (kinetic) worked out at 44 µg/mL (≈ 136 µM).

On to `O=C(O)CN1CCN(Cc2ccc(F)cc2)C1=O`, for which the solubility (kinetic) was over 37.8 µg/mL.

Regarding `COc1ccc(Cl)cc1C(=O)NCc1ccc2c(c1)OCO2`, the kinetic solubility is 34.3 µg/mL (≈ 107 µM).

Regarding `COc1ccccc1OCC#CCN1CCCC1.O=C(O)C(=O)O`, the solubility (kinetic) was over 50.3 µg/mL.

Compound `CC(C)c1nnc(NC(=O)C2CCCO2)s1` (centres undefined) yielded a solubility (kinetic) of over 36.2 µg/mL.

Regarding `COc1ccc(NC(=O)CC2(CC(=O)O)CCCC2)cc1`, the kinetic solubility was 43.6 µg/mL (≈ 150 µM).

For the compound `C=CCn1c([O-])c(C(C)=O)c(=O)[nH]c1=O.C[NH+](C)C`, the solubility (kinetic) is over 40.4 µg/mL.

In the case of `CCc1ccc(Nc2ncc3c(n2)CC(C)(C)CC3=O)cc1`, the kinetic solubility was determined as 1.1 µg/mL (≈ 3.72 µM).

`CC(C)Cn1c(N)c(C(=O)COC(=O)c2ccccc2C(=O)c2ccccc2)c(=O)n(C)c1=O` showed a solubility (kinetic) of 3.5 µg/mL (≈ 7.55 µM).

`O=C(O)c1ccc(N2C(=O)CSC2c2cccc([N+](=O)[O-])c2)cc1` (centres undefined) registered a solubility (kinetic) of over 51.7 µg/mL.

In turn, `Cc1ccc(S(=O)(=O)N2CCN(C3CC(=O)N(c4ccc(F)cc4)C3=O)CC2)cc1C` (centres undefined) returned a solubility (kinetic) of 52.5 µg/mL (≈ 118 µM).

The compound `CCOC(=O)C1=C(CBr)NC(=O)NC1C` (centres undefined) displayed a solubility (kinetic) of over 41.6 µg/mL.

In turn, `CS(=O)(=O)N(CC(=O)Nc1ccc(F)cc1)C1CCCCC1` gave a solubility (kinetic) of 45.3 µg/mL (≈ 138 µM).

`COc1ccc(S(N)(=O)=O)cc1C(=O)OCC(=O)Nc1ncc(Cl)c(C)c1Cl`: the solubility (kinetic) amounted to 24 µg/mL (≈ 53.5 µM).

For the compound `Nc1nnc(SCc2c(F)cccc2Cl)s1`, the solubility (kinetic) is over 41.4 µg/mL.

For the compound `FC(F)(F)c1ccc(-c2csc(-c3ccno3)n2)cc1`, the kinetic solubility is under 0.3 µg/mL.

`O=C(Cc1cccs1)N1CCN=C1SCc1cccc(F)c1` had a solubility (kinetic) of 12.6 µg/mL (≈ 37.7 µM).

`Cc1ccc(C(=O)N2CCN(C)CC2)cc1[N+](=O)[O-]`: the solubility (kinetic) is over 39.5 µg/mL.

`CN(Cc1ccccc1)C(=O)C1CCN(S(C)(=O)=O)CC1` registered a solubility (kinetic) of over 46.6 µg/mL.

With `CC12CCC(=O)N1C(C(=O)N1CCN(c3ccc([N+](=O)[O-])cc3)CC1)CS2` (centres undefined), the solubility (kinetic) is 30.7 µg/mL (≈ 78.6 µM).

As for `Cc1sc(NC(=O)/C=C/c2ccco2)c(C(=O)O)c1C`, the solubility (kinetic) turned out to be 40.9 µg/mL (≈ 140 µM).

Turning to `Cc1cc2c(cc1C)C(c1ccccc1OC(C)C)CC(=O)N2` (centres undefined), the solubility (kinetic) is under 0.7 µg/mL.

For the compound `Cc1ccc(C2CN(C)CC2C(=O)c2ccc(F)cc2)cc1` (centres undefined), the solubility (kinetic) worked out at 35.8 µg/mL (≈ 120 µM).

On to `CCc1ncc(C)[nH]1`, for which the solubility (kinetic) was over 16.5 µg/mL.

With `Cc1c(C(=O)N(C)CCn2ccnc2C)oc2c(F)cccc12`, the solubility (kinetic) stood at 38.1 µg/mL (≈ 121 µM).

Compound `COc1ccccc1OCc1nc(-c2cccc([N+](=O)[O-])c2)no1` showed a solubility (kinetic) of 0.9 µg/mL (≈ 2.75 µM).

Take `CCOc1ccc(/C=C(\C#N)C(=O)NC2CC2)c(OCC)c1`: the kinetic solubility was 4.8 µg/mL (≈ 16 µM).

The compound `O=C(c1ccc([N+](=O)[O-])s1)N1CCN(c2ccccn2)CC1` showed a solubility (kinetic) of 42.7 µg/mL (≈ 134 µM).

Compound `COC(=O)c1cc(COC(=O)CNC(=O)c2ccc(Br)cc2)oc1C` gave a solubility (kinetic) of 6.8 µg/mL (≈ 16.6 µM).

Regarding `Cc1ccc(Cl)c(OCCN2CCc3ccccc3C2)c1.Cl`, the solubility (kinetic) amounted to 4.4 µg/mL.

The compound `Cc1cccc(Cn2cc(C=O)c3ccccc32)c1` came in with a kinetic solubility of 14.5 µg/mL (≈ 58.2 µM).

`CCc1cccc(OCC(=O)Nc2c[nH]c(=O)[nH]c2=O)c1`: the solubility (kinetic) is 0.9 µg/mL (≈ 3.11 µM).

`COc1ccccc1N(CC1CO1)S(=O)(=O)c1ccccc1` (centres undefined): the kinetic solubility is over 47.9 µg/mL.

For `Cc1cc(C(=O)OCC(=O)Nc2ccccc2C#N)c(C)o1`, the solubility (kinetic) was 8.9 µg/mL (≈ 29.8 µM).

The compound `N#Cc1cc([N+](=O)[O-])ccc1NC(=O)COC(=O)C1CCC(=O)N1` (centres undefined) displayed a solubility (kinetic) of over 49.8 µg/mL.

Take `O=C(c1ccccc1F)N1CCOCC1`: the solubility (kinetic) was over 31.4 µg/mL.

`CN1CCN2c3ncccc3Cc3ccccc3[C@@H]2C1` returned a kinetic solubility of 30.2 µg/mL (≈ 114 µM).

The compound `Cc1cc(-c2ccccc2)nc(N(C)C)c1S(C)(=O)=O` registered a kinetic solubility of 25 µg/mL (≈ 86.1 µM).

`OC[C@@H](O)C1OC2NC(=S)OC2C1O` (some centres undefined): the kinetic solubility was over 33.2 µg/mL.

Consider `O=C(Nc1ccc(Oc2cccnc2)nc1)c1ccc(C(F)(F)F)cc1`, for which the kinetic solubility turned out to be 10.3 µg/mL (≈ 28.7 µM).

`Cc1ccc(NS(=O)(=O)N2CCOCC2)cc1` came in with a solubility (kinetic) of over 38.4 µg/mL.

`Cn1c(/C=C/c2ccccc2)nc2ccccc21`: the solubility (kinetic) was determined as 21.9 µg/mL (≈ 93.5 µM).

`Cc1ccc(S(C)(=O)=NS(=O)(=O)c2cccc3nsnc23)cc1` (centres undefined) came in with a kinetic solubility of over 55.1 µg/mL.

`Cc1ccc(OCc2nc(C#N)c(N3CCCCC3)o2)cc1` registered a solubility (kinetic) of 4.9 µg/mL (≈ 16.5 µM).

Regarding `Cc1nc2sccc2c(=O)n1N`, the kinetic solubility was over 27.2 µg/mL.

The compound `Cc1ccc(N2CN(CCC3=CCCCC3)CNC2=S)cc1` had a solubility (kinetic) of 5.1 µg/mL (≈ 16.2 µM).

Consider `Cc1cccc(NC(=O)c2cc[n+]([O-])cc2)c1C`, for which the solubility (kinetic) is over 36.3 µg/mL.

On to `Cc1cccc(S(=O)(=O)Nc2nc3ccccc3nc2OC(C)C)c1`, for which the kinetic solubility was found to be 3.1 µg/mL (≈ 8.67 µM).

Consider `CCCOc1ccc(CCCN=C(N)N)cc1Cl.O=S(=O)(O)O`, for which the solubility (kinetic) turned out to be 42.2 µg/mL.

For the compound `Cc1c(C(=O)NC2CCC(C)CC2)oc2ccccc12` (centres undefined), the solubility (kinetic) amounted to 0.7 µg/mL (≈ 2.58 µM).

As for `CC1Cc2ccccc2N1S(=O)(=O)c1ccc(Cl)nc1` (centres undefined), the solubility (kinetic) came to 1.9 µg/mL (≈ 6.15 µM).

For `Cc1nc(N2CCN(C)CC2)c2c3c(sc2n1)CCCC3`, the kinetic solubility turned out to be 41.4 µg/mL (≈ 137 µM).

In turn, `CC(C)Cc1nnc(NC(=O)C2=COCCO2)s1` had a kinetic solubility of over 40.4 µg/mL.

`CN(Cc1ccccc1)S(=O)(=O)c1ccc(N2CCOCC2)nc1` had a kinetic solubility of 2.5 µg/mL (≈ 7.2 µM).

The compound `CN(CC(=O)O)S(=O)(=O)c1ccc2c(c1)n(C)c(=O)c(=O)n2C` had a kinetic solubility of over 51.2 µg/mL.

In turn, `O=C(Nc1ccc(NC(=O)C2CC2)nc1)c1ccccc1F` had a solubility (kinetic) of 8.1 µg/mL (≈ 27.1 µM).

Consider `O=C(O)CCc1ccc(-c2cccs2)n1CCc1ccccc1`, for which the solubility (kinetic) is over 48.8 µg/mL.

`COc1ccc(NC(=O)NC2(C(=O)N3CCCC3)CCCCC2)cc1` showed a kinetic solubility of 24 µg/mL (≈ 69.5 µM).

On to `CC(CCc1ccccc1)NC(=O)CCNC(=O)c1ccccc1Cl` (centres undefined), for which the solubility (kinetic) was determined as 12.3 µg/mL (≈ 34.3 µM).

Compound `COC(=O)[C@H](Cc1ccccc1)NC(=O)NCc1ccccc1` gave a kinetic solubility of 45.4 µg/mL (≈ 145 µM).

For the compound `CC(C)N(Cc1ccccc1)C(=O)CCc1ccccc1`, the kinetic solubility stood at 36.8 µg/mL (≈ 131 µM).

The values are drawn from PubChem BioAssay AID1996.
